Assay results reported in patent publication US20220402917A1, “COMPOUND AS SMALL MOLECULE INHIBITOR PD-1/PD-L1 AND APPLICATION THEREOF” (MEDSHINE DISCOVERY INC., priority 2019, published 2022).

Legend:
[1] = molecular target: T1, PD-L1 in MDA-MR-231 cells (Homo sapiens, UniProt Q9NZQ7); test: Effect on expression level of PD-L1 in MDA-MR-231 cells (FACS); type: cell-based; conditions: 24 hours incubation, FACS detection of cell surface PD-L1
T1 construct: endogenous in cells; host or cells: MDA-MB-231
T1 sequence (Q9NZQ7 19-290): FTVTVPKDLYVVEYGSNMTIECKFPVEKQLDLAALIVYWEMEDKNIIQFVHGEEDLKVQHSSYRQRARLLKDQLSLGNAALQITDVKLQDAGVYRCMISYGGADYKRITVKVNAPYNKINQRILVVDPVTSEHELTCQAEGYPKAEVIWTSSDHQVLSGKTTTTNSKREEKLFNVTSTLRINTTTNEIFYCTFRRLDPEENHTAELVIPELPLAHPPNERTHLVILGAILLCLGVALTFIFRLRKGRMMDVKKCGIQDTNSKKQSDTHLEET
Method in brief: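 MDA-MB-231 cells (1×10^5/well) were incubated 24 h at 37 °C with 5-fold serially diluted compounds. Cells were detached with 10 mM EDTA, then stained with anti-human PD-L1 and LIVE/DEAD dye (4 °C, 30 min) and fixed. Surface PD-L1 was measured by flow cytometry.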

[2] = molecular target: T2, PD1/PD-L1 (Homo sapiens, UniProt Q9NZQ7); test: PD-1/PD-L1 homogeneous time-resolved fluorescence (HTRF) binding experiment; design: purchased BPS Biosciences; conditions: HTRF (TR-FRET), PD-L1-biotin, PD1-Eu
Source text: Experimental Example 1: PD-1/PD-L1 Homogenouse Time-Resolved Fluorescence (HTRF) Binding Experiment
When the PD-1 molecule as the donor is very close to the PD-L1 molecule as the acceptor, the donor molecule will transfer the energy to the receptor molecule, which in turn causes the receptor molecule to emit fluorescence. The ability of small molecules to prevent the binding of PD-L1 to PD-1 can be tested by detecting the intensity of fluorescence. A homogeneous time-resolved fluorescence (HTRF) binding experiment is used to detect the ability of the compounds of the present disclosure to inhibit the binding of PD-1/PD-L1.
PD1/PD-L1 TR-FRET detection kit was purchased from BPS Biosciences. Nivo multi-label analyzer (PerkinElmer).
PD1-Eu, Dye-labeled acceptor, PD-L1-biotin and compounds to be tested were diluted with the buffer in the kit. The compounds to be tested were subjected to 5-fold dilution to eight concentration gradients with a row gun. That is, from 40 μM to 0.5 nM, the DMSO concentration was 4%, and a double-well experiment was set up. 5 μL of inhibitor with each concentration gradient were added to the microwell plate, and 5 μL buffer containing 4% DMSO and 5 μL PD-L1-biotin (PD-L1-biotin) (60 nM) were added into well with the maximum signal (Max) and the well with the minimum signal (Min), only 5 μL of buffer was added to the well with the minimum signal (Min), and the incubation was conducted at 25° C. for 20 minutes. After the incubation was completed, 5 μL of diluted PD1-Eu (10 nM) and […] were added to each well. The reaction system was placed at 25° C. for 90 minutes. The TR-FRET signal was read by a multi-label analyzer after the reaction was completed.
Using the equation (sample−Min)/(Max−Min)×100% to convert the raw data into inhibition rate, and the IC50 value can be obtained by curve fitting with four parameters (obtained from log(inhibitor) vs. response—Variable slope mode in GraphPad Prism). Table 1 provides the inhibitory activity of the compounds of the examples of the present disclosure on PD1/PD-L1 binding
Target sequence in this assay (Q9NZQ7 19-239 limits assumed): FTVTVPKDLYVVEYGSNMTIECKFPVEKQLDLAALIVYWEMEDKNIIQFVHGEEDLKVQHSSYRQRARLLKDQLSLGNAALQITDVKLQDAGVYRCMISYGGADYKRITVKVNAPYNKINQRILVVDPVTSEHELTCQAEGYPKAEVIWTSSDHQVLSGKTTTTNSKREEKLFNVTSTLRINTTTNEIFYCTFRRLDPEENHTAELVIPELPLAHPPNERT

[3] = molecular target: T2, PD1/PD-L1; test: NFAT activity test (TCR Activitor/PD-L1 CHO cells with PD-1/NFAT Reporter-Jurkat cells); type: cell-based; design: host or cells: TCR Activitor/PD-L1 CHO cells; PD-1/NFAT Reporter-Jurkat cells; conditions: TCR Activitor/PD-L1 CHO cells + PD-1/NFAT Reporter-Jurkat cells, 5 hours, luciferase
Method in brief: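 TCR activator/PD-L1 CHO cells were pretreated 30 min at 37 °C with compound (20 μM to 0.25 nM, 5-fold steps, 2% DMSO). PD-1/NFAT reporter Jurkat cells were then added for 5 h at 37 °C. NFAT-driven luciferase read by Bright-Glo luminescence, normalised to Min/Max, IC50 from 4-parameter fit.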
Target sequence in this assay (Q9NZQ7 19-290): as the sequence (Q9NZQ7 19-290) above

## Cc1cc(C(=O)Nc2cccc(-c3cccc(NC(=O)c4ccc(CNCCO)cn4)c3C)c2Cl)nc2c1CCN(CC(=O)O)C2 [Compound 17]
[1]
  IC50: 0.75 nM
[2]
  IC50: 1.49 nM
[3]
  Maximum effect (induction fold): 4.23 induction fold
[3]; read-out: IC50, inhibitory activity on PD1/PD-L1 binding (NFAT activity test)
  IC50: 25.1 nM
